Laboratory results as given in patent US20110150825A1, “USES OF SELECTIVE INHIBITORS OF HDAC8 FOR TREATMENT OF INFLAMMATORY CONDITIONS” (PHARMACYCLICS, INC., priority 2006, published 2011).
Several values for one entry are separate records, joined by “and”; a condition that tells them apart may be missing. Equal entries are not always repeated.

How the values were obtained:
Caspase-1 = target: T1, Caspase-1 (Homo sapiens, UniProt P29466); assay: Purified protease assay, fluorescence (Caspase-1); assay type: biochemical
T1 sequence (P29466 120-297 limits assumed): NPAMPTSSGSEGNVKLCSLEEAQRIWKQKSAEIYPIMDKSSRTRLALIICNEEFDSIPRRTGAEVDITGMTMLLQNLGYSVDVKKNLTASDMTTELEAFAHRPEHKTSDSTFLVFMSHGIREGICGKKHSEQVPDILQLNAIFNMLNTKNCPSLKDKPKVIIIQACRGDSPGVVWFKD
T1 sequence (P29466 317-404 limits assumed): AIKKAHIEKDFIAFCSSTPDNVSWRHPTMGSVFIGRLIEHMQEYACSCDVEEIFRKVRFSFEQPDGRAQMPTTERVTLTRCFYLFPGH
Description: (§1) . Product was quantified by fluorescence (n=2) (FIG. 19). Ac-YVAD-CHO and GM-6001 served as positive controls and were used at empirically determined IC50 concentrations.

[1] = tested on: oxazolone-induced topical inflammatory model in BALB/c mice; assay: Oxazolone-induced topical inflammatory model (ear swelling); assay type: in vivo
Procedure: To this end, we utilized two mouse models of allergic contact dermatitis, which are schematically illustrated in FIG. 12. […] Afterwards, the difference in the thickness of each of the two ears was compared to measure the extent of swelling (ie. inflammation).
As a further test, vehicle or the indicated compounds were administered topically in 40 μl doses 30 minutes before and 15 minutes after a second challenge (25 μl/ear of 1% oxazolone in acetone) (n=6). Ear thickness was measured 24 hours after the second challenge with a Dyer model micrometer gauge.

[2] = tested on: arachidonic acid-induced topical inflammatory model in BALE/c mice; assay: Arachidonic acid-induced topical inflammatory model (ear swelling); assay type: in vivo
primary human monocytes = assay: IL-1β secretion and IL-1β species in LPS-induced primary human monocytes (ELISA, western blotting); assay type: cell-based
Procedure: Culture supernatants were analyzed for cytokine levels by ELISA (FIG. 16). […] Cell lysates were also analyzed for levels of IL-1β species by western blotting (FIG. 20).
Cells were treated with 1 mM ATP for 10 minutes. Culture supernatants were analyzed for IL-1β by ELISA (FIG. 18).

[3] = target: TNFα converting enzyme (TACE) (Homo sapiens, UniProt P78536); assay: Purified protease assay, fluorescence (TACE); assay type: biochemical
Description: as §1

TNFα converting enzyme (TACE), sequence (P78536 215-824, species assumed): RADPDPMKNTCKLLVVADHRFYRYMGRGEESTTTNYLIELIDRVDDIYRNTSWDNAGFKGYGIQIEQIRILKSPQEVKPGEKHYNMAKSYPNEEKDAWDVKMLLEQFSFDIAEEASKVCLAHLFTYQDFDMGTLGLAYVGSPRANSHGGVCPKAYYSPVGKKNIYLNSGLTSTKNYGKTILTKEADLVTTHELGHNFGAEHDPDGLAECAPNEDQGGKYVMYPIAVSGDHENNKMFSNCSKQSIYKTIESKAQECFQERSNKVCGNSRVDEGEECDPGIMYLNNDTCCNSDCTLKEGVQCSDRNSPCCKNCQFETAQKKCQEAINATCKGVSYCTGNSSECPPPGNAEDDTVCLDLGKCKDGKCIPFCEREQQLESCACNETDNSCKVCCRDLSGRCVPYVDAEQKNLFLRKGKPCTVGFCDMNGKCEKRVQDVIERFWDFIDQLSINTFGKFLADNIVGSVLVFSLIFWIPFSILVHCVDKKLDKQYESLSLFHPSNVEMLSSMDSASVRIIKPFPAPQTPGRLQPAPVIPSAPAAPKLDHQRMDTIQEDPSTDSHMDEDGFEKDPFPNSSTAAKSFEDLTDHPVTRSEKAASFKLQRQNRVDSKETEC

Q: With CC(=O)N[C@@H](Cc1ccc(O)cc1)C(=O)N[C@H](C(=O)N[C@@H](C)C(=O)N[C@H](C=O)CC(=O)O)C(C)C [Ac-YVAD-CHO, reference compound] as the molecule, how does the IC50 (Caspase-1; positive control, read-out: empirically determined IC50 concentration, Caspase-1) read?
A: The IC50 was 0.02 µM.

Q: What does the source list for COc1ccc2c(c1)c(CC(=O)O)c(C)n2C(=O)c1ccc(Cl)cc1 [Indomethacin, reference compound]?
A: Ear Thickness Net ([1]; 0.3 mg/ear × 2, topical): 9.7 ± 1.0 0.01 mm; % Inhibition ([1]; 0.3 mg/ear × 2, topical, relative to vehicle-treated control, ≧30% considered significant): (40) %; % Inhibition ([2]; TOP, 3 mg/ear × 2): (62) %; Ear thickness L. Ear, mean (X) ([2]; TOP, 3 mg/ear × 2): 20.2 ×0.01 mm; Ear thickness Net, mean (X) ([2]; TOP, 3 mg/ear × 2): 5.5 ×0.01 mm; Ear thickness R. Ear, mean (X) ([2]; TOP, 3 mg/ear × 2): 25.7 ×0.01 mm; Ear thickness L. Ear, individual animals ([2]; TOP, 3 mg/ear × 2, N 1-6): 19 ×0.01 mm and 21 ×0.01 mm (2×) and 20 ×0.01 mm (3×); Ear thickness Net, individual animals ([2]; TOP, 3 mg/ear × 2, N 1-6): 7 ×0.01 mm and 4 ×0.01 mm and 6 ×0.01 mm (2×) and 5 ×0.01 mm (2×); Ear thickness R. Ear, individual animals ([2]; TOP, 3 mg/ear × 2, N 1-6): 26 ×0.01 mm (4×) and 25 ×0.01 mm (2×)

Q: For COc1ccc(Cn2ccc3ccc(C(=O)NO)cc32)cc1 [Compound 23, 1-(4-methoxy-phenylmethyl)-1H-indole-6-carboxylic acid hydroxyamide], which “Ear Thickness Net” value ([1]; 1 mg/ear × 2, topical) is on record?
A: The value was 12.5 ± 1.8 0.01 mm.

Q: What about the “Ear Thickness Net” value ([1]; 3 mg/ear × 2, topical) of the same molecule?
A: Its value is 7.3 ± 0.3 0.01 mm.

Q: And the “pro-IL-1β levels in cell lysates, of control levels (densitometry)” value (primary human monocytes; 2 μM lane)?
A: Its value is 153%.

Q: What about the “pro-IL-1β levels in cell lysates, of control levels (densitometry)” value (primary human monocytes; 10 μM lane) of the same molecule?
A: The value was 142%.

Q: What about the “direct inhibition of TACE protease” value ([3]; 10 μM) of the same molecule?
A: The value was “does not Directly Inhibit”.

Q: What about the “direct inhibition of Caspase-1 protease” value (Caspase-1; 10 μM) of the same molecule?
A: The value was “does not Directly Inhibit”.

Q: What about the “arachidonic acid-induced inflammation (in words)” value ([2]; 1 mg) of the same molecule?
A: Its value is “reduced arachidonic acid-induced inflammation”.

Q: What about the “Ear thickness L. Ear, mean (X)” value ([2]; TOP, 1 mg/ear × 2) of the same molecule?
A: The value was 20.0 ×0.01 mm.

Q: What about the “Ear thickness Net, mean (X)” value ([2]; TOP, 1 mg/ear × 2) of the same molecule?
A: The value was 9.7 ×0.01 mm.

Q: And the “Ear thickness R. Ear, mean (X)” value ([2]; TOP, 1 mg/ear × 2)?
A: The value was 29.7 ×0.01 mm.

Q: And the “Ear thickness L. Ear, individual animals” value ([2]; TOP, 1 mg/ear × 2, N 1-6)?
A: Its value is 20 ×0.01 mm (4×) and 21 ×0.01 mm and 19 ×0.01 mm.

Q: And the “Ear thickness Net, individual animals” value ([2]; TOP, 1 mg/ear × 2, N 1-6)?
A: The value was 9 ×0.01 mm (3×) and 11 ×0.01 mm and 8 ×0.01 mm and 12 ×0.01 mm.

Q: And the “Ear thickness R. Ear, individual animals” value ([2]; TOP, 1 mg/ear × 2, N 1-6)?
A: Its value is 29 ×0.01 mm (2×) and 32 ×0.01 mm (2×) and 28 ×0.01 mm (2×).

Q: And the “Ear thickness L. Ear, mean (X)” value ([2]; TOP, 3 mg/ear × 2)?
A: Its value is 20.5 ×0.01 mm.

Q: What about the “Ear thickness Net, mean (X)” value ([2]; TOP, 3 mg/ear × 2) of the same molecule?
A: Its value is 10.3 ×0.01 mm.

Q: And the “Ear thickness R. Ear, mean (X)” value ([2]; TOP, 3 mg/ear × 2)?
A: The value was 30.8 ×0.01 mm.

Q: What about the “Ear thickness L. Ear, individual animals” value ([2]; TOP, 3 mg/ear × 2, N 1-6) of the same molecule?
A: The value was 21 ×0.01 mm (4×) and 19 ×0.01 mm and 20 ×0.01 mm.

Q: What about the “Ear thickness Net, individual animals” value ([2]; TOP, 3 mg/ear × 2, N 1-6) of the same molecule?
A: The value was 6 ×0.01 mm (2×) and 11 ×0.01 mm and 16 ×0.01 mm (2×) and 7 ×0.01 mm.

Q: And the “Ear thickness R. Ear, individual animals” value ([2]; TOP, 3 mg/ear × 2, N 1-6)?
A: The value was 27 ×0.01 mm (2×) and 32 ×0.01 mm and 35 ×0.01 mm and 36 ×0.01 mm and 28 ×0.01 mm.

Q: How did the IC50 [3] turn out when CNC(=O)[C@H](Cc1c[nH]c2ccccc12)NC(=O)[C@@H](CC(=O)NO)CC(C)C [GM-6001, reference compound] was run?
A: The IC50 was 0.06 µM.
